Laboratory results reported in EP4122467A1, “THX-B FOR TREATING AND PREVENTING CANCER AND METASTASIS” (Fundación del Sector Público Estatal Centro Nacional de …, priority 2021, dated 2023).
Entries after “also recorded” stand apart in the source; their conditions may differ.

What was measured:
mouse melanoma cells = assay: Spontaneous metastasis model, mouse melanoma cells injected subcutaneously (Figure 1); type: in vivo, c57/BL6 mice
Description: • Figure 1. NGFR inhibition by THX-B reduces melanoma spontaneous metastasis. A-B) 200.000 lymph node metastatic mouse melanoma cells were subcutaneously in c57/BL6 mice. Animals were treated intra-peritoneally with THX-B (4 mg/Kg twice a week), starting on day 7 post-injection of tumor cells. Tumor volume (A) was measured twice a week using a caliper. LN and lung metastatic burden (B) were measured using the IVIS image system and represented as fold over vehicle treated mice. Error bars represent s.e.m. of 2 experiments (n = 8 mice, vehicle group and n = 10, THX-B group). C-D) Similarly, tumor growth (C) was measured in mice subcutaneously injected with lung metastatic mouse melanoma cells (200.000) and treated with vehicle or THX-B in the same conditions as A) (n=4-5mice per condition). D) Percentage of lung lobules with melanoma metastasis in animals with flank tumors originated by injecting B16F10 cells. p values were calculated by two-tailed Student's t test. • Figure 2. NGFR inhibition by THX-B reduces melanoma spontaneous metastasis in immunodeficient models. Lung metastatic human melanoma cells (500.000) were injected subcutaneously into the flank of nude mice. […] A) Tumor growth was measured with a caliper twice a week. B) Quantification of the percentage of lung lobules with melanoma metastasis was analyzed measuring Luc expression of tumor loci with the IVIS system. p values were calculated by two-tailed Student's t test. • Figure 3. […] A) Tumor volume was measured using a caliper. […] Distal metastases were analyzed measuring luciferase expression in the lungs using IVIS system. Error bars represent s.e.m of 3 experiment (n = 12 mice, vehicle group, n = 12, antiPD-L1 group; n=8 antiPDL1 and THX-B group). p values were calculated by two-tailed Student's t test. • Figure 4. […] Quantification of LYVE+ area was performed with ImageJ software and was normalized to total LN area in each section. Error bars represent s.e.m of 1 experiment (n = 6 LNs, 3 whole sections analyzed per nodule). p values were calculated by two-tailed Student's t test. • Figure 6. […]

[1] = test system: Lung metastatic human melanoma cells; assay: Spontaneous metastasis model in immunodeficient mice, human melanoma cells injected subcutaneously (Figure 2); type: in vivo, nude mice; settings: immunodeficient models; THX-B 4 mg/Kg intraperitoneal twice a week from day 7; vs vehicle
Description: (§1) • Figure 1. NGFR inhibition by THX-B reduces melanoma spontaneous metastasis. A-B) 200.000 lymph node metastatic mouse melanoma cells were subcutaneously in c57/BL6 mice. Animals were treated intra-peritoneally with THX-B (4 mg/Kg twice a week), starting on day 7 post-injection of tumor cells. Tumor volume (A) was measured twice a week using a caliper. LN and lung metastatic burden (B) were measured using the IVIS image system and represented as fold over vehicle treated mice. Error bars represent s.e.m. of 2 experiments (n = 8 mice, vehicle group and n = 10, THX-B group). C-D) Similarly, tumor growth (C) was measured in mice subcutaneously injected with lung metastatic mouse melanoma cells (200.000) and treated with vehicle or THX-B in the same conditions as A) (n=4-5mice per condition). D) Percentage of lung lobules with melanoma metastasis in animals with flank tumors originated by injecting B16F10 cells. p values were calculated by two-tailed Student's t test. • Figure 2. […] A) Tumor growth was measured with a caliper twice a week. B) Quantification of the percentage of lung lobules with melanoma metastasis was analyzed measuring Luc expression of tumor loci with the IVIS system. p values were calculated by two-tailed Student's t test. • Figure 3. […] A) Tumor volume was measured using a caliper. […] Distal metastases were analyzed measuring luciferase expression in the lungs using IVIS system. […]

B16F1-R2 cells = assay: Lymph node lymphangiogenesis, LYVE-1 staining of inguinal LNs of animals with flank tumors (Figure 5); type: in vivo; settings: 2.5 mg/Kg THX-B intra-peritoneally twice a week from day 7; sacrificed at 21 days
Description: as §1

[2] = Drug levels and tissue distribution after intraperitoneal and oral administration; type: in vivo, mice
Description: In lymph nodes compound was detected at 8 hours with a concentration of 9 ng/ml.

proNGF/p75^NTR axis [3] = assay: Voiding spot assay (VSA) in diabetic mice; type: in vivo, C57BL/6 female mice
Description: Voiding spot assay: For the voiding spot assay (VSA), mice were placed individually with access to food without water for 2 h. The cage was fitted with a chromatography paper, grade 3 mm CHR (Whatman, GE Healthcare, UK) covered by a fine metallic mesh (2-3 mm pore size). The urine spot pattern was assessed by imaging the chromatography paper with ultraviolet light using SynGene Bioimaging system (USA) connected to GeneSnap software (Version 7.02, USA) and analysed by ImageJ software (Version: 2.0.0-rc-66/1.52n, NIH, USA) using a calibration curve and Void Whizzard free software plugin for FIJI (distribution of ImageJ, Version: 2.0.0-rc-66/1.52n, NIH, USA). Mice were acquainted to the procedure once to get accustomed, then the experiment was done once to obtain the voiding data.
(§2) Animal housing and treatments All experiments received the ethical approval from the Lady Davis Institute Ethics Board (No. 7859), Montreal, Canada. Housing and handling conformed with the Canadian Council for Animal Care (CCAC). One hundred and forty four 9-week-old C57BL/6 female mice were kept on a 12 h light/dark cycle with free access to food (standard Purina chow, Teklad Global, Wl, USA) and water. Diabetes was induced by i.p. injection of streptozotocin (60 mg/kg in citrate buffer, 10 mmol/l, pH 4.5 on 5 consecutive days) after 4-5 h fasting. Fasting serum glucose (FSG) was checked after 5-7 days using a glucometer (Contour next EZ, Bayer, ON, Canada) from the tail. FSG above 14 mmol/l was considered diabetic. Mice were divided into four groups without pre-considering their weight changes or glucose levels (for diabetic groups): control (42 mice); untreated diabetic (hereafter referred to as Dm; 42 mice); anti-proNGF mAb-treated diabetic mice (30 mice); and small molecule p75^NTR antagonist (THX-B)-treated diabetic mice (30 mice). […] This inhibitor antagonises ligand-dependent p75^NTR functions and, different from other anti-NGF mAbs, it is free of the off-target side effects resulting from inhibiting TrkA. We have observed that the molecule is detectable in systemic circulation for 2 weeks. The THX-B small molecule ((1,3-diisopropyl-1-[2-(1,3-dimethyl-2,6-dioxo-1,2,3,6-tetrahydro-purin-7-yl)-acetyl]-urea); molecular mass […]) is a synthetic chemical with an estimated systemic circulation half-life in vivo of 6-8 h.
(§3) Without blinding, i.p. injections of the drug molecules or the vehicle (PBS) were given weekly for four weeks, starting after 2 weeks of diabetes confirmation. A single starting proNGF mAb i.p. injection of 100 µg/mouse in 150 µl PBS was followed by 60 µg/mouse in 100µl PBS for the following three injections. THX-B was injected i.p. at a weekly dose of 50 µg/mouse in 125 µl PBS. Experimental time points (to carry out cystometry, contractility, protein extraction and histology) were baseline (two weeks after diabetes diagnosis included control and Dm groups only), week 2 after treatment (following 2 injection cycles) and week 4 after treatment (following 4 injection cycles). Body weight was measured weekly and FSG fortnightly for all groups. Six mice from each group were kept for another 2 weeks after the end of the study duration to observe the washout/prolonged effect of the molecules.

proNGF/p75^NTR axis [4] = assay: Bladder weight and morphology in diabetic voiding dysfunction model; type: in vivo, C57BL/6 female mice
Description: as §2, §3

proNGF/p75^NTR axis [5] = assay: Cystometry in diabetic voiding dysfunction model; type: in vivo, C57BL/6 female mice; settings: compared with Dm
Description: as §2, §3

proNGF/p75^NTR axis [6] = assay: Bladder contractility in diabetic voiding dysfunction model; type: in vivo, C57BL/6 female mice; settings: compared with Dm, week as printed in the cell
Description: as §2
Without blinding, i.p. injections of the drug molecules or the vehicle (PBS) were given weekly for four weeks, starting after 2 weeks of diabetes confirmation. A single starting proNGF mAb i.p. injection of 100 µg/mouse in 150 µl PBS was followed by 60 µg/mouse in 100µl PBS for the following three injections. THX-B was injected i.p. at a weekly dose of 50 µg/mouse in 125 µl PBS. […] Body weight was measured weekly and FSG fortnightly for all groups. […]

proNGF/NGF = assay: Molecular changes in diabetic voiding dysfunction model: proNGF/NGF; type: in vivo, C57BL/6 female mice; settings: compared with Dm
Description: (§4) Animal housing and treatments All experiments received the ethical approval from the Lady Davis Institute Ethics Board (No. 7859), Montreal, Canada. Housing and handling conformed with the Canadian Council for Animal Care (CCAC). One hundred and forty four 9-week-old C57BL/6 female mice were kept on a 12 h light/dark cycle with free access to food (standard Purina chow, Teklad Global, Wl, USA) and water. Diabetes was induced by i.p. injection of streptozotocin (60 mg/kg in citrate buffer, 10 mmol/l, pH 4.5 on 5 consecutive days) after 4-5 h fasting. Fasting serum glucose (FSG) was checked after 5-7 days using a glucometer (Contour next EZ, Bayer, ON, Canada) from the tail. FSG above 14 mmol/l was considered diabetic. Mice were divided into four groups without pre-considering their weight changes or glucose levels (for diabetic groups): control (42 mice); untreated diabetic (hereafter referred to as Dm; 42 mice); anti-proNGF mAb-treated diabetic mice (30 mice); and small molecule p75^NTR antagonist (THX-B)-treated diabetic mice (30 mice). […]
(§5) Without blinding, i.p. injections of the drug molecules or the vehicle (PBS) were given weekly for four weeks, starting after 2 weeks of diabetes confirmation. […] Body weight was measured weekly and FSG fortnightly for all groups. […]

TNF-a = assay: Molecular changes in diabetic voiding dysfunction model: TNF-a; type: in vivo, C57BL/6 female mice; settings: compared with Dm
Description: as §4, §5

proNGF/p75^NTR axis [7] = assay: Fasting serum glucose and bladder weight/morphology after drug washout (Figure 7); type: in vivo, C57BL/6 female mice; settings: after the 3 week washout period; compared with Dm
Description: as §1

[8] = Persistence in systemic circulation in vivo; settings: read-out: estimated systemic circulation half-life in vivo
Source text: In both the proNGF mAb and the THX-B treatments, the prolonged anatomical physiological effects on the bladder are likely to be due to a prolonged therapeutic effect rather than to the drugs remaining in circulation at therapeutic levels after a 3 week period, given that we have observed that anti-proNGF mAb is detectable in systemic circulation only for 2 weeks in previous studies.
as §4, with “diabetic.” for “diabetic. Mice were divided into four groups without pre-considering their weight changes or glucose levels (for diabetic groups): control (42 mice); untreated diabetic (hereafter referred to as Dm; 42 mice); anti-proNGF mAb-treated diabetic mice (30 mice); and small molecule p75^NTR antagonist (THX-B)-treated diabetic mice (30 mice).”

[9] = THX-B 4 mg/Kg intra-peritoneally twice a week from day 7, vs vehicle
[10] = compared with Dm, week as printed in the cell

organ distribution: lymph nodes ([2]; females, 20 hours after injection 4mg/Kg): can be detected | detection levels ([2]; intraperitoneal injection 4mg/Kg, males and female mice, said to suggest a short half-life): dropped 1 hour after injection | concentration at 8 h ([2]; mouse, lymph nodes, oral dose 50mg/Kg, 8 hours): 9 ng/mL | concentration at 24 h ([2]; mouse, tissues except lymph nodes, oral dose 50mg/Kg, 24h, read-out: tissue distribution: concentration in all the tissues except the lymph nodes): 12 to 20 ng/mL | half-life ([2]; oral gavage 10mg/Kg, compared with intraperitoneal injection): similar | half-life ([2]; oral gavage 50mg/Kg): sustained over time | half-life [8]: 6 to 8 h
SMILES: CC(C)NC(=O)N(C(=O)Cn1cnc2c1c(=O)n(C)c(=O)n2C)C(C)C [THX-B, 1,3-diisopropyl-1-[2-(1,3-dimethyl-2,6-dioxo-1,2,3,6-tetrahydro-purin-7-yl)-acetyl]-urea]
melanoma spontaneous metastasis (mouse melanoma cells; Figure 1 title, THX-B 4 mg/Kg intra-peritoneally twice a week): reduces | distal (lung) spontaneous metastasis (mouse melanoma cells; [9]): impaired | local (lymph node) spontaneous metastasis (mouse melanoma cells; [9]): impaired | lung spontaneous metastasis [1]: reduce | lymph node lymphangiogenesis (Lyve-1+ staining in inguinal lymph nodes) (B16F1-R2 cells): reduces; also recorded: decreased | lower total voided volume compared with Dm (proNGF/p75^NTR axis [3]; after 2 weeks of treatment): 50% | total voided volume (proNGF/p75^NTR axis [3]; after 2 weeks of treatment, 2 h VSA, Dm 802.5±123µl): 372 ± 73 µL | VSA: Volume per spot (proNGF/p75^NTR axis [3]; compared with Dm): ⇔ | effects on voiding frequency, total voided volume and mean volume per micturition (proNGF/p75^NTR axis [3]; compared with Dm, except total voided volume for THX-B at 2 weeks): minimal effects | VSA: Number of spots (proNGF/p75^NTR axis [3]; [10]): ↓ (week 2) | VSA: Total volume (proNGF/p75^NTR axis [3]; [10]): ↓ (week 2) | Morphology: Collagen content (proNGF/p75^NTR axis [4]; compared with Dm): ↓ | Morphology: Detrusor (proNGF/p75^NTR axis [4]; compared with Dm): ↓ | Morphology: Mucosa (proNGF/p75^NTR axis [4]; compared with Dm): ↓ | Morphology: Overall thickness (proNGF/p75^NTR axis [4]; compared with Dm): ↓ | Bladder weight (proNGF/p75^NTR axis [4]; compared with Dm, week of treatment as printed in the cell): ↓ (week 2,4) | morphology of the bladder (proNGF/p75^NTR axis [4]; following THX-B treatment, in spite of continuous hyperglycemia): improved | Cystometry: Spontaneous activity (proNGF/p75^NTR axis [5]): ⇔ | Cystometry: Bladder capacity (proNGF/p75^NTR axis [5]; week as printed in the cell): ↓ (week 4) | Cystometry: Bladder compliance (proNGF/p75^NTR axis [5]; week as printed in the cell): ⇔ | Cystometry: ICI (proNGF/p75^NTR axis [5]; inter-contraction interval, week as printed in the cell): ↓ (week 4) | Contractility: EFS (proNGF/p75^NTR axis [6]; Electric field stimulation): ↑ (week 2,4) | Contractility: Carbachol (proNGF/p75^NTR axis [6]): ↑ (week 2,4) | Contractility: KCI (proNGF/p75^NTR axis [6]): ↑ (week 2,4) | Molecular changes: proNGF/NGF (proNGF/NGF): ↓ | Molecular changes: TNF-a (TNF-a): ↓↓ | Bladder weight (proNGF/p75^NTR axis [7]): persistent absence of bladder hypertrophy; also recorded: maintained a significant difference
